From patent US20240092784A1, “CONDENSED HETEROCYCLIC COMPOUND” (NISSAN CHEMICAL CORPORATION, priority 2020, published 2024) come the findings set out here.

Structures can show the parent of a compound that is named as a salt.

The target of one assay is human SPR (Homo sapiens (Human), UniProt P35270). Put plainly: Evaluation Example 2: Measurement of human SPR inhibitory activity (seven concentrations, sepiapterin absorbance at 420 nm). It is filed as biochemical. Conditions: Evaluation Example 2, seven concentrations 0.14 nM to 100 nM, 240 minutes at room temperature, read-out: IC50. The method in brief: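 Reactions ran 240 min at room temperature in 100 mM Tris-HCl pH 7.5 with 0.01% BSA. They contained tag-cleaved, E. coli-expressed full-length human SPR (diluted to 150 ng/mL), seven compound concentrations from 0.14 to 100 nM, and sepiapterin/NADPH added as a 120 μM/160 μM solution. Inhibition was calculated from sepiapterin absorbance at 420 nm.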
human SPR, sequence (P35270 whole entry): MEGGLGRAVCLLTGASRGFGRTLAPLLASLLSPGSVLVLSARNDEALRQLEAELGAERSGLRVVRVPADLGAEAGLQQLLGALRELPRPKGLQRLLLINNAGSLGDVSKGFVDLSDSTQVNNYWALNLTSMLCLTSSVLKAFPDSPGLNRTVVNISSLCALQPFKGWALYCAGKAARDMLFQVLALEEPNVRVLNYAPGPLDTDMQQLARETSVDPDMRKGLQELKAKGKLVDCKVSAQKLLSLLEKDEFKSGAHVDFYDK
For the molecule `CC(C)Cn1c(=O)c(C(=O)NC2CC2)c(O)n2ncc(C(=O)NCc3cnccn3)c12` [Synthesis Example 220, N6-Cyclopropyl-7-hydroxy-4-isobutyl-5-oxo-N3-(pyrazin-2-ylmethyl)-4,5-dihydropyrazolo[1,5-a]pyrimidine-3,6-dicarboxamide], the IC50 stood at 0.79 nM. The same measure, in the same setting: as for `CC1(Cn2c(=O)c(C(=O)NC3CC3)c(O)n3ncc(/C=C/C(=O)N4C5CCC4COC5)c23)CC1` [Synthesis Example 367, (E)-3-(3-(3-Oxa-8-azabicyclo[3.2.1]octan-8-yl)-3-oxoprop-1-en-1-yl)-N-cyclopropyl-7-hydroxy-4-((1-methylcyclopropyl)methyl)-5-oxo-4,5-dihydropyrazolo[1,5-a]pyrimidine-6-carboxamide], the figure is 0.62 nM; as for `CC(C)Cn1c(=O)c(C(=O)NC2CC2)c(O)n2ncc(/C=C/C(=O)N3CCN(C4CCC4)CC3)c12` [compound 472, (E)-3-(3-(4-Cyclobutylpiperazin-1-yl)-3-oxoprop-1-en-1-yl)-N-cyclopropyl-7-hydroxy-4-isobutyl-5-oxo-4,5-dihydropyrazolo[1,5-a]pyrimidine-6-carboxamide], 1.12 nM; as for `Cc1nn2c(O)c(C(=O)NC3CC3)c(=O)n(CC(C)C)c2c1/C=C/C(=O)N1CCC[C@@H]1c1ccccc1` [Synthesis Example 673, (R,E)-N-Cyclopropyl-7-hydroxy-4-isobutyl-2-methyl-5-oxo-3-(3-oxo-3-(2-phenylpyrrolidin-1-yl)prop-1-en-1-yl)-4,5-dihydropyrazolo[1,5-a]pyrimidine-6-carboxamide], 1.35 nM.

With `CC[C@H]1CCCN1C(=O)/C=C/c1cnn2c(O)c(C(=O)NC3CC3)c(=O)n(CC(C)C)c12` [compound 605, (S,E)-N-Cyclopropyl-3-(3-(2-ethylpyrrolidin-1-yl)-3-oxoprop-1-en-1-yl)-7-hydroxy-4-isobutyl-5-oxo-4,5-dihydropyrazolo[1,5-a]pyrimidine-6-carboxamide], the IC50 worked out at 1.2 nM. On the same count and under the same terms, as for `CC(C)(C)Cn1c(=O)c(C(=O)NC2CC2)c(O)n2nc(-c3cnc(F)cn3)cc12` [Synthesis Example 304, N-Cyclopropyl-2-(5-fluoropyrazin-2-yl)-7-hydroxy-4-neopentyl-5-oxo-4,5-dihydropyrazolo[1,5-a]pyrimidine-6-carboxamide], the figure is 3 nM; as for `Cc1nn2c(O)c(C(=O)NC3CC3)c(=O)n(CC(C)C)c2c1/C=C/C(=O)N1C2CCC1COC2` [Synthesis Example 658, (E)-3-(3-(3-Oxa-8-azabicyclo[3.2.1]octan-8-yl)-3-oxoprop-1-en-1-yl)-N-cyclopropyl-7-hydroxy-4-isobutyl-2-methyl-5-oxo-4,5-dihydropyrazolo[1,5-a]pyrimidine-6-carboxamide], 0.78 nM; as for `CC(C)Cn1c(=O)c(C(=O)NC2CC2)c(O)n2ncc(/C=C/C(=O)N3CC[C@H](C(C)(C)O)C3)c12` [compound 598, (S,E)-N-Cyclopropyl-7-hydroxy-3-(3-(3-(2-hydroxypropan-2-yl)pyrrolidin-1-yl)-3-oxoprop-1-en-1-yl)-4-isobutyl-5-oxo-4,5-dihydropyrazolo[1,5-a]pyrimidine-6-carboxamide], 1.2 nM. Regarding `CC(C)(C)Cn1c(=O)c(C(=O)NC2CC2)c(O)n2nc(N)c(/C=C/C3CCOCC3)c12` [Synthesis Example 433, (E)-2-Amino-N-cyclopropyl-7-hydroxy-4-neopentyl-5-oxo-3-(2-(tetrahydro-2H-pyran-4-yl)vinyl)-4,5-dihydropyrazolo[1,5-a]pyrimidine-6-carboxamide hydrochloride], the IC50 came to 0.97 nM. As to `C/C(=C\c1cnn2c(O)c(C(=O)NC3CC3)c(=O)n(CC(C)C)c12)C(=O)N(C)CC#N` [Synthesis Example 258, (E)-3-(3-((Cyanomethyl)(methyl)amino)-2-methyl-3-oxoprop-1-en-1-yl)-N-cyclopropyl-7-hydroxy-4-isobutyl-5-oxo-4,5-dihydropyrazolo[1,5-a]pyrimidine-6-carboxamide], the IC50 turned out to be 0.74 nM.

Take `CC(C)(C)Cn1c(=O)c(C(=O)NC2CC2)c(O)n2nc(-c3cc(F)cnc3N)cc12` [Synthesis Example 285, 2-(2-Amino-5-fluoropyridin-3-yl)-N-cyclopropyl-7-hydroxy-4-neopentyl-5-oxo-4,5-dihydropyrazolo[1,5-a]pyrimidine-6-carboxamide]: the IC50 came to 3.28 nM. As to `C/C(=C\c1cnn2c(O)c(C(=O)NC3CC3)c(=O)n(CC(C)C)c12)C(=O)N1CCC(F)(F)CC1` [Synthesis Example 253, (E)-N-Cyclopropyl-3-(3-(4,4-difluoropiperidin-1-yl)-2-methyl-3-oxoprop-1-en-1-yl)-7-hydroxy-4-isobutyl-5-oxo-4,5-dihydropyrazolo[1,5-a]pyrimidine-6-carboxamide], the IC50 was found to be 0.85 nM. Same read-out and setting: as for `COC(C)Cn1c(=O)c(C(=O)NC2CC2)c(O)n2ncc(/C=C/C(=O)N3CCOCC3)c12` (single isomer, unassigned) [Synthesis Example 384, (E)-N-Cyclopropyl-7-hydroxy-4-(2-methoxypropyl)-3-(3-morpholino-3-oxoprop-1-en-1-yl)-5-oxo-4,5-dihydropyrazolo[1,5-a]pyrimidine-6-carboxamide], the figure is 0.82 nM; as for `Cc1nn2c(O)c(C(=O)NC3CC3)c(=O)n(CC(C)C)c2c1/C=C/C(=O)N1CCO[C@H](C)C1` [Synthesis Example 679, (R,E)-N-Cyclopropyl-7-hydroxy-4-isobutyl-2-methyl-3-(3-(2-methylmorpholino)-3-oxoprop-1-en-1-yl)-5-oxo-4,5-dihydropyrazolo[1,5-a]pyrimidine-6-carboxamide], 0.94 nM; as for `CC(C)Cn1c(=O)c(C(=O)NC2CC2)c(O)n2ncc(/C=C/C(=O)N3CCC[C@H]3C(=O)N(C)C)c12` [compound 587, (S,E)-N-Cyclopropyl-3-(3-(2-(dimethylcarbamoyl)pyrrolidin-1-yl)-3-oxoprop-1-en-1-yl)-7-hydroxy-4-isobutyl-5-oxo-4,5-dihydropyrazolo[1,5-a]pyrimidine-6-carboxamide], 1.37 nM. On the same count and under the same terms, under `CC(C)(C)Cn1c(=O)c(C(=O)NC2CC2)c(O)n2nc(-c3c[nH]nc3N)cc12` [Synthesis Example 317, 2-(3-Amino-1H-pyrazol-4-yl)-N-cyclopropyl-7-hydroxy-4-neopentyl-5-oxo-4,5-dihydropyrazolo[1,5-a]pyrimidine-6-carboxamide] stands 1.34 nM; under `Cc1nn2c(O)c(C(=O)NC3CC3)c(=O)n(CC(C)C)c2c1/C=C/C(=O)N(C)CC#N` [Synthesis Example 681, (E)-3-(3-((Cyanomethyl)(methyl)amino)-3-oxoprop-1-en-1-yl)-N-cyclopropyl-7-hydroxy-4-isobutyl-2-methyl-5-oxo-4,5-dihydropyrazolo[1,5-a]pyrimidine-6-carboxamide], 0.64 nM; under `Cc1nn2c(O)c(C(=O)NC3CC3)c(=O)n(CC(C)C)c2c1/C=C/C(=O)N1CCC[C@@H]1C(C)(C)O` [compound 611, (R,E)-N-Cyclopropyl-7-hydroxy-3-(3-(2-(2-hydroxypropan-2-yl)pyrrolidin-1-yl)-3-oxoprop-1-en-1-yl)-4-isobutyl-2-methyl-5-oxo-4,5-dihydropyrazolo[1,5-a]pyrimidine-6-carboxamide], 1.22 nM.

For the molecule `C/C=C/c1c(N)nn2c(O)c(C(=O)NC3CC3)c(=O)n(CC(C)(C)C)c12` [Synthesis Example 438, (E)-2-Amino-N-cyclopropyl-7-hydroxy-4-neopentyl-5-oxo-3-(prop-1-en-1-yl)-4,5-dihydropyrazolo[1,5-a]pyrimidine-6-carboxamide hydrochloride], the IC50 stood at 0.98 nM. Still for that read-out and setting: as for `Cc1nn2c(O)c(C(=O)NC3CC3)c(=O)n(CC(C)(C)C)c2c1/C=C/C1CCOCC1` [compound 584, (E)-N-Cyclopropyl-7-hydroxy-2-methyl-4-neopentyl-5-oxo-3-(2-(tetrahydro-2H-pyran-4-yl)vinyl)-4,5-dihydropyrazolo[1,5-a]pyrimidine-6-carboxamide], the figure is 1.2 nM. Still for that read-out and setting: as for `CC(C)Cn1c(=O)c(C(=O)NC2CC2)c(O)n2ncc(C(=O)NCc3ccc(F)cc3F)c12` [Synthesis Example 234, N6-Cyclopropyl-N3-(2,4-difluorobenzyl)-7-hydroxy-4-isobutyl-5-oxo-4,5-dihydropyrazolo[1,5-a]pyrimidine-3,6-dicarboxamide], the figure is 1.41 nM. The same measure, in the same setting: under `Cc1nn2c(O)c(C(=O)NC3CC3)c(=O)n(CC(C)C)c2c1/C=C/C(=O)N1[C@H](C)CC[C@H]1C` [Synthesis Example 616, N-Cyclopropyl-3-((E)-3-((2R,5R)-2,5-dimethylpyrrolidin-1-yl)-3-oxoprop-1-en-1-yl)-7-hydroxy-4-isobutyl-2-methyl-5-oxo-4,5-dihydropyrazolo[1,5-a]pyrimidine-6-carboxamide] stands 1.12 nM; under `CC(=O)N1CCC(C)(/C=C/c2cnn3c(O)c(C(=O)NC4CC4)c(=O)n(CC(C)C)c23)CC1` [Synthesis Example 245, (E)-3-(2-(1-Acetyl-4-methylpiperidin-4-yl)vinyl)-N-cyclopropyl-7-hydroxy-4-isobutyl-5-oxo-4,5-dihydropyrazolo[1,5-a]pyrimidine-6-carboxamide], 1.08 nM.

Staying with this assay, now noted: sepiapterin absorbance, Table 41, read-out: concentration at 50% inhibition of human SPR (IC50).
Regarding `CC(C)Cn1c(=O)c(C(=O)NC2CC2)c(O)n2ncc(/C=C/C(=O)N3CCCC34CCN(C(C)C)CC4)c12` [Synthesis Example 746, (E)-N-Cyclopropyl-7-hydroxy-4-isobutyl-3-(3-(8-isopropyl-1,8-diazaspiro[4.5]decan-1-yl)-3-oxoprop-1-en-1-yl)-5-oxo-4,5-dihydropyrazolo[1,5-a]pyrimidine-6-carboxamide], the IC50 was found to be 1.54 nM.
